Data published in patent publication US8691818B2, “Cyclic triazo and diazo sodium channel blockers” (University Of Greenwich, priority 2008, dated 2014).
Where a name gives a salt, the structure may show the parent alone.

Legend:
sodium channel = experiment: [14C]guanidine flux: veratrine-evoked uptake of [14C]guanidine into rat forebrain synaptosomes (primary sodium channel assay); assay type: biochemical; settings: 30° for 2½ min
Experimental: The screening strategy is designed to select compounds with appropriate sodium channel blocking activity and low side effect liability. To this end all compounds are processed through the primary sodium channel assay (veratrine-evoked uptake of [^14C]guanidine into rat forebrain synaptosomes) and IC50 values computed from generated concentration-effect curves.
Experiments were performed using forebrain (whole brain less cerebellum/medulla) from Male Wistar rats weighing 175-250 g. All efforts were made to reduce the number of animals used and all experiments were carried out in accordance with the UK Animals (Scientific Procedures) Act, 1986 and the European Community Council Directive of 24 Nov. 1986 (86/609/EEC). Following killing of animals by stunning and decapitation, the forebrain (whole brain less cerebellum/medulla) was rapidly dissected and transferred to a weighed tube containing ice-cold 0.25M sucrose.
Synaptosomes (heavy and light mitochondrial fraction containing synaptosomes) were prepared by transferring the forebrain (of known wet weight) to a glass Potter vessel to which 9 volumes ice-cold 0.25M sucrose had been added and homogenising, using a teflon pestle, by 8 ‘up and down strokes’ of a Braun Potter S motor driven homogeniser set to 900 rpm. The resulting homogenate was centrifuged at 1036×g at 4° for 10 min and the supernatant collected. The remaining pellet was resuspended, as above, in fresh ice-cold 0.25M sucrose and the centrifugation step repeated. The supernatant fractions were pooled and centrifuged at 40,000×g (average) at 4° for 15 min and the resulting pellet resuspended in the appropriate assay buffer at a concentration of 20-25 mg wet weight per ml appropriate assay buffer.
Both assays were carried out using 14 ml polypropylene test tubes to which a range of concentrations of the compounds under test were added.
The [^14C] guanidinine flux assay was measured using the method of Pauwels P J et al (1986) but carried out@30° for 2½ min.
(§1) Data are presented as mean±sem of number of experiments indicated in brackets.

[1] = target: T1, DiHydroFolate Reductase (DHFR) (Rattus norvegicus, UniProt Q920D2); experiment: Inhibition of binding of [3H]methotrexate to rat liver homogenate supernatant; settings: 125 μM; read-out: [3H]mtx binding (% inhibition @ 125 μM)
T1 construct: from tissue; host or cells: rat liver homogenate supernatant
T1 sequence (Q920D2 1-187): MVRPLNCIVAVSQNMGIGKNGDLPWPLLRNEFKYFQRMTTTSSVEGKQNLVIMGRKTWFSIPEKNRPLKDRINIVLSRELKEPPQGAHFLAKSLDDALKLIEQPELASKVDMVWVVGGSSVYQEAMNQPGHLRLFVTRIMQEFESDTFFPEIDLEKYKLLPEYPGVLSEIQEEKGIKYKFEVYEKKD
Experimental: All steps were carried out at 4° (or on ice). Freshly dissected rat liver was dissected into 0.25M ice-cold Sucrose and subsequently homogenised (U-turrax) in 50 mM pH 6.0 phosphate buffer (10 ml/g tissue) containing 15 mM Dithiothreitol. The resulting homogenate was centrifuged@47,500×g for 20 min and supernatant (filtered through cotton wool to remove fatty lumps) stored @ −80° before use (Rothenberg et al).
Inhibition of the binding of [^3H]methotrexate to rat liver homogenate supernatant fractions were carried out essentially as described by Arons et al, 1975.
as §1

In the case of `CCn1nc(-c2ccc3ccccc3c2)c(N)nc1=N` (as salt: methanesulfonate) [CEN-75, 5(3)-Amino-6-(2-naphthyl)-2,3(2,5)-dihydro-3(5)-imino-2-ethyl-1,2,4-triazine methanesulfonate], the melting point is reported as 175 to 177 °C.

With `Nc1nnc(-c2ccccc2OC(F)(F)F)c(N)n1` [CEN-56, 3,5-Diamino-6-(2-trifluoromethoxyphenyl)-1,2,4-triazine] the melting point was 148 to 150 °C.

In the case of `CCn1nc(-c2sc(Cl)c(Cl)c2Cl)c(N)nc1=N` (as salt: methanesulfonate) [CEN-195, 5(3)-Amino-6-{2-(3,4,5-trichloro)thienyl}-2,3(2,5)-dihydro-3(5)-imino-2-ethyl-1,2,4-triazine methanesulfonate], the melting point is reported as 202 to 204 °C.

In the case of `Cn1nc(-c2ccccc2OC(F)F)c(N)nc1=N` (as salt: methanesulfonate) [CEN-146, 5(3)-Amino-6-(2-difluoromethoxyphenyl)-2,3(2,5)-dihydro-3(5)-imino-2-methyl-1,2,4-triazine methanesulfonate], the melting point is reported as 213 to 215 °C.

`COc1cc(-c2nn(C)c(=N)nc2N)cc(OC)c1OC` (as salt: methanesulfonate) [CEN-101, 5(3)-Amino-6-(3,4,5-trimethoxyphenyl)-2,3(2,5)-dihydro-3(5)-imino-2-methyl-1,2,4-triazine methanesulfonate] gave a melting point of 258 to 259 °C.

Work on `Cn1nc(-c2sc(Cl)c(Cl)c2Cl)c(N)nc1=N` (as salt: methanesulfonate) [CEN-194, 5(3)-Amino-6-{2-(3,4,5-trichloro)thienyl}-2,3(2,5)-dihydro-3(5)-imino-2-methyl-1,2,4-triazine methanesulfonate] yielded a melting point of 192 to 194 °C.

For `Cn1nc(-c2cccc(-c3ccccc3)c2)c(N)nc1=N` (as salt: methanesulfonate) [CEN-161, 5(3)-Amino-6-(3-biphenyl)-2,3(2,5)-dihydro-3(5)-imino-2-methyl-1,2,4-triazine methanesulfonate], the melting point was 180 to 181 °C.

In the case of `Cn1nc(-c2cc(C(F)(F)F)cc(C(F)(F)F)c2)c(N)nc1=N` (as salt: methanesulfonate) [CEN-99, 5(3)-Amino-6-[3,5-(bis-trifluoromethyl)phenyl]-2,3(2,5)-dihydro-3(5)-imino-2-methyl-1,2,4-triazine methanesulfonate], the melting point is reported as 179 to 181 °C.

`CCn1nc(-c2cc(C(C)(C)C)cc(C(C)(C)C)c2)c(N)nc1=N` (as salt: methanesulphonate) [CEN-189, 5(3)-Amino-6-(3,5 bis-tert-butylphenyl)-2,3(2,5)-dihydro-3(5)-imino-2-ethyl-1,2,4-triazine methanesulphonate] gave a melting point of 258 to 261 °C.

Molecule `CCn1nc(-c2cc(OC)c(OC)c(OC)c2)c(N)nc1=N` (as salt: methanesulfonate) [CEN-119, 5(3)-Amino-6-(3,4,5-trimethoxyphenyl)-2,3(2,5)-dihydro-3(5)-imino-2-ethyl-1,2,4-triazine methanesulfonate] has a melting point of 305 to 306 °C.

Molecule `Cn1nc(-c2cccs2)c(N)nc1=N` (as salt: methanesulfonate) [CEN-61, 5(3)-Amino-6-(2-thienyl)-2,3(2,5)-dihydro-3(5)-imino-2-methyl-1,2,4-triazine methanesulfonate] has a melting point of 201 to 202 °C.

`Cn1nc(-c2cc(Br)c(Br)o2)c(N)nc1=N` (as salt: methanesulfonate) [CEN-135, 5(3)-Amino-6-[2-(4,5-dibromofuryl)]-2,3(2,5)-dihydro-3(5)-imino-2-methyl-1,2,4-triazine methanesulfonate] gave a melting point of 183 to 185 °C.

`Cn1nc(-c2cc(C(F)(F)F)cc(Cl)c2F)c(N)nc1=N` (as salt: mesylate) [CEN-202, 5(3)-Amino-6-(3-chloro-2-fluoro-5-trifluoromethyphenyl)-2,3(2,5)-dihydro-3(5)-imino-2-methyl-1,2,4-triazine mesylate] showed a melting point of 277 to 279 °C.

`Cn1nc(C(C)(c2ccccc2)c2ccccc2)c(N)nc1=N` (as salt: methanesulfonate) [CEN-149, 5(3)-Amino-6-(1,1-diphenylethyl)-2,3(2,5)-dihydro-3(5)-imino-2-methyl-1,2,4-triazine methanesulfonate] gave a melting point of 240 to 242 °C.

Molecule `Cn1nc(-c2ccc(Oc3ccccc3)cc2)c(N)nc1=N` (as salt: methanesulfonate) [CEN-102, 5(3)-Amino-6-(4-phenoxyphenyl)-2,3(2,5)-dihydro-3(5)-imino-2-methyl-1,2,4-triazine methanesulfonate] has a melting point of 174 to 176 °C.

In the case of `CCn1nc(-c2cccs2)c(N)nc1=N` (as salt: methanesulfonate) [CEN-62, 5(3)-Amino-6-(2-thienyl)-2,3(2,5)-dihydro-3(5)-imino-2-ethyl-1,2,4-triazine methanesulfonate], the melting point is reported as 194 to 196 °C.

With `Cn1nc(-c2cc(F)c(F)cc2Cl)c(N)nc1=N` (as salt: mesylate) [CEN-204, 5(3)-Amino-6-(2-chloro-4,5-difluoro-5-phenyl)-2,3(2,5)-dihydro-3(5)-imino-2-methyl-1,2,4-triazine mesylate] the melting point was 319 to 321 °C.

Molecule `CCn1nc(-c2cccc(C(F)(F)F)c2Cl)c(N)nc1=N` (as salt: methanesulphonate) [CEN-178, 5(3)-Amino-6-(2-chloro-3-trifluoromethyphenyl)-2,3(2,5)-dihydro-3(5)-imino-2-ethyl-1,2,4-triazine methanesulphonate] has a melting point of 207 to 209 °C.

With `Cn1nc(-c2ccc3ccccc3c2)c(N)nc1=N` (as salt: methanesulfonate) [CEN-76, 5(3)-Amino-6-(2-naphthyl)-2,3(2,5)-dihydro-3(5)-imino-2-methyl-1,2,4-triazine methanesulfonate] the melting point was 243 to 244 °C.

With `CCn1nc(-c2cccc(-c3ccccc3)c2)c(N)nc1=N` (as salt: methanesulfonate) [CEN-162, 5(3)-Amino-6-(3-biphenyl)-2,3(2,5)-dihydro-3(5)-imino-2-ethyl-1,2,4-triazine methanesulfonate] the melting point was 224 to 226 °C.

`Nc1nnc(-c2nc(Cl)ccc2Cl)c(N)n1` [CEN-188, 3,5-Diamino-6-[2-(3,6-dichloropyidyl)]-1,2,4-triazine] showed an IC50 (sodium channel) of 2570 µM and an inhibition at 125 µM [1] of 76%.

Work on `COc1cc(-c2nn(C)c(=N)nc2N)cc(OC)c1OC` [CEN-101, 5(3)-Amino-6-(3,4,5-trimethoxyphenyl)-2,3(2,5)-dihydro-3(5)-imino-2-methyl-1,2,4-triazine methanesulfonate] yielded an IC50 (sodium channel) greater than 1000 µM and an inhibition at 125 µM [1] of 65%.

With `Cn1nc(-c2cc(Br)c(Br)o2)c(N)nc1=N` [CEN-135, 5(3)-Amino-6-[2-(4,5-dibromofuryl)]-2,3(2,5)-dihydro-3(5)-imino-2-methyl-1,2,4-triazine methanesulfonate] the IC50 (sodium channel) was 43.7 µM and the inhibition at 125 µM [1] was 89%.

With `Nc1nnc(-c2ccc3c(c2)OC(F)(F)O3)c(N)n1` [CEN-117, 3,5-Diamino-6-[5-(2,2-difluorobenzodioxolo)]-1,2,4-triazine] the IC50 (sodium channel) was greater than 1000 µM and the inhibition at 125 µM [1] was 79%.

Work on `Nc1nnc(-c2cccc3c2OC(F)(F)O3)c(N)n1` [CEN-70, 3,5-Diamino-6-[4-(2,2-difluorobenzodioxolo)]-1,2,4-triazine] yielded an IC50 (sodium channel) of 1510 µM and an inhibition at 125 µM [1] of 66%.

`C[n+]1cc(N)nc(N)c1-c1cc(Cl)cc(Cl)c1Cl` [CEN-90] gave an IC50 (sodium channel) of 97.7 µM and an inhibition at 125 µM [1] of 53%.

`Cn1nc(C(C)(c2ccccc2)c2ccccc2)c(N)nc1=N` [CEN-149, 5(3)-Amino-6-(1,1-diphenylethyl)-2,3(2,5)-dihydro-3(5)-imino-2-methyl-1,2,4-triazine methanesulfonate] showed an IC50 (sodium channel) of 23.4 µM and an inhibition at 125 µM [1] of 4%.

`Cn1nc(-c2cccs2)c(N)nc1=N` [CEN-61, 5(3)-Amino-6-(2-thienyl)-2,3(2,5)-dihydro-3(5)-imino-2-methyl-1,2,4-triazine methanesulfonate] gave an IC50 (sodium channel) of 676 µM and an inhibition at 125 µM [1] of 87%.

In the case of `Nc1nnc(-c2cccc(Cl)n2)c(N)n1` [CEN-166, 3,5-Diamino-6-[2-(6-chloropyidyl)]-1,2,4-triazine], the IC50 (sodium channel) is reported as 1180 µM and the inhibition at 125 µM [1] is reported as 88%.
